This passage reports CC50 results from PMC6792352, “Limited Chemical Structural Diversity Found to Modulate Thyroid Hormone Receptor in the Tox21 Chemical Library” (Environmental Health Perspectives, 2019).

A word on the CC50: it is the concentration giving 50% cytotoxicity. Read a high CC50 as lower toxicity to the cells.

SMILES strings stand for the structures. Structures can show the parent of a compound that is named as a salt. A value given as a limit tells only on which side of the number the result lay.

This series is described as follows: in vitro. To be noted: rat, gh3-tre-luc cells.

In the case of `CN1CCN(c2c(F)cc3c(=O)c(C(=O)O)cn(CCF)c3c2F)CC1` [Fleroxacin], the CC50 at 24 h (AC50 (uM) modified / 1000) is > 50 µM.
Still for that read-out and setting: the result for `O=S1(=O)CC(Cl)(Cl)C(Cl)(Cl)C1` [3,3,4,4-Tetrachlorotetrahydrothiophene 1,1-dioxide] reads 1.02 µM.
In the case of `CN1CC[C@@]23CCCC[C@@H]2[C@@H]1Cc1ccc(O)cc13` [Dextrorphan tartrate], the CC50 at 24 h (AC50 (uM) modified / 1000) is > 50 µM.
The same measure, in the same setting: the result for `C#CC(O)C(CC)CCCC` (stereo not drawn) [4-Ethyloct-1-yn-3-ol] reads > 90 µM; that for `CCC=O` [Propanal], > 90 µM.
As to `CCCCOC(=O)C(C)Oc1ccc(Oc2ccc(C(F)(F)F)cn2)cc1` (stereo not drawn) [Fluazifop-butyl], the cytotoxic concentration (CC50) at 24 h (AC50 (uM) modified / 1000) is > 90 µM.
On the same count and under the same terms, the same measure for `CCCCC(CC)COC(=O)/C=C\C(=O)OCC(CC)CCCC` (stereo not drawn) [Bis(2-ethylhexyl) maleate]: > 90 µM; for `C=CC(=O)OCCCCCC(C)C` [Isooctyl acrylate]: > 100 µM; for `C[C@]12CCC(=O)C=C1CC[C@@H]1[C@@H]2[C@@H](O)C[C@@]2(C)[C@H]1CC[C@]2(O)C(=O)CO` [Hydrocortisone]: > 90 µM.
On the same count and under the same terms, the same measure for `O=C(O)c1ccccc1O` [Sodium salicylate]: > 90 µM; for `Cc1cnc(C(=O)O)c[n+]1[O-]` [Acipimox]: > 50 µM; for `CCCCOC(=O)c1ccccc1C(=O)OCCCC` [Dibutyl phthalate]: > 90 µM.
For the compound `CC1=C2[C@H](/C=C(\C)C(=O)O)CC[C@@H](C)[C@H]2CC1` [Valerenic acid], the half-maximal cytotoxic concentration (CC50) at 24 h (AC50 (uM) modified / 1000) was > 100 µM.
Still for that read-out and setting: the same measure for `C=C(C)C(=O)OC` [Methyl methacrylate]: > 90 µM.
Regarding `CCN(Cc1ccccc1)c1ccccc1` [N-Ethyl-N-phenyl benzylamine], the half-maximal cytotoxic concentration (CC50) at 24 h (AC50 (uM) modified / 1000) is > 90 µM.
Same read-out and setting: the same measure for `O=c1oc2c(O)c(O)cc3c(=O)oc4c(O)c(O)cc1c4c23` [Ellagic acid]: > 50 µM; for `CC1OC(=O)C(C)OC1=O` (stereo not drawn) [3,6-Dimethyl-2,5-dioxo-1,4-dioxane]: > 90 µM; for `CCOC(=O)C=CC(=O)O` [4-Ethoxy-4-oxobut-2-enoic acid]: > 90 µM.
Same read-out and setting: the result for `CCCOCCC` [Propyl ether] reads > 90 µM.
Same read-out and setting: the same measure for `O=C(O)CCc1nc2ccccc2[nH]1` [Procodazole]: > 50 µM.
`COCCCC/C(=N\OCCN)c1ccc(C(F)(F)F)cc1` [Fluvoxamine]: the CC50 at 24 h (AC50 (uM) modified / 1000) was 15 µM.
Still for that read-out and setting: the result for `CC(C)c1ccc(CO)cc1` [4-Isopropylbenzyl alcohol] reads > 90 µM.
Consider `O=NN1CCOCC1` [N-Nitrosomorpholine], for which the CC50 at 24 h runs as follows: (AC50 (uM) modified / 1000, Tox21_110001=Tox21_202132, viability, 1 nM T3 present, 24 h) > 100 µM; (AC50 (uM) modified / 1000, Tox21_110001=Tox21_302867, viability, 1 nM T3 present, 24 h) > 90 µM.
In the case of `Cn1cc(C(=O)[C@@H]2CCc3nc[nH]c3C2)c2ccccc21` [Ramosetron hydrochloride], where the note is “AC50 (uM) modified / 1000”, the CC50 at 24 h is > 50 µM.
Consider `CC(C)(C)C(=O)OCOC(=O)[C@@H]1N2C(=O)[C@@H](N=CN3CCCCCC3)[C@H]2SC1(C)C` [Pivmecillinam hydrochloride], for which the half-maximal cytotoxic concentration (CC50) at 24 h (AC50 (uM) modified / 1000) was > 20 µM.
Still for that read-out and setting: the result for `NS(=O)(=O)c1cc2c(cc1Cl)NC(CC1CCCC1)NS2(=O)=O` (stereo not drawn) [Cyclopenthiazide] reads > 20 µM; that for `COCCc1ccc(OCC(O)CNC(C)C)cc1` (stereo not drawn) [Metoprolol tartrate], > 50 µM.
On to `O=C1C(Cl)=C(Cl)C(=O)c2ccccc21` [Dichlone], for which the CC50 at 24 h is, setting by setting: (AC50 (uM) modified / 1000, Tox21_110001=Tox21_201652, viability, 1 nM T3 present, 24 h) 31.4 µM; (AC50 (uM) modified / 1000, Tox21_110001=Tox21_303031, viability, 1 nM T3 present, 24 h) 7.73 µM.
On to `O=C(O)c1cccc(O)c1` [3-Hydroxybenzoic acid], for which the CC50 at 24 h (AC50 (uM) modified / 1000) was > 90 µM.
In the case of `CCCCCC(=O)OCC` [Ethyl hexanoate], the CC50 at 24 h (AC50 (uM) modified / 1000) was > 90 µM.
Regarding `CC[C@H](N)c1ccccc1` [(S)-(-)-1-Amino-1-phenylpropane], the CC50 at 24 h (AC50 (uM) modified / 1000, Tox21_110001=Tox21_202829, viability, 1 nM T3 present, 24 h) was > 90 µM.
`CNc1ncnc2nc[nH]c12` [(N-6)-Methyladenine]: the cytotoxic concentration (CC50) at 24 h (AC50 (uM) modified / 1000) was > 90 µM.
The same measure, in the same setting: the same measure for `C/C(=N\C#N)N(C)Cc1ccc(Cl)nc1` [Acetamiprid]: > 90 µM; for `CN1CCN(CCC(=O)N2c3ccccc3Sc3ccc(C(F)(F)F)cc32)CC1` [Ftormetazine]: 25.8 µM.
As for `CSc1ccc(C(=O)C(C)(C)N2CCOCC2)cc1` [2-Methyl-4'-(methylthio)-2-morpholinopropiophenone], the CC50 at 24 h (AC50 (uM) modified / 1000, Tox21_110001=Tox21_301664, viability, 1 nM T3 present, 24 h) was > 90 µM.
Regarding `NS(=O)(=O)c1ccccc1OC(F)(F)F` [2-(Trifluoromethoxy)benzenesulfonamide], where the note is “AC50 (uM) modified / 1000”, the CC50 at 24 h was > 90 µM.
On the same count and under the same terms, the result for `O=C(O)/C=C/c1ccc(O)c(O)c1` [Caffeic acid] reads > 90 µM.
On the same count and under the same terms, the same measure for `CO[Si](OC)(OC)OC` [Tetramethyl orthosilicate]: 81.5 µM.
Turning to `N#CCNCC#N` [Iminodiacetonitrile], for the setting “AC50 (uM) modified / 1000, Tox21_110001=Tox21_301075, viability, 1 nM T3 present, 24 h”, the CC50 at 24 h was > 90 µM.
`CCCCCC1CCCC(=O)O1` (stereo not drawn) [6-Pentyltetrahydro-2H-pyran-2-one]: the CC50 at 24 h (AC50 (uM) modified / 1000) is > 90 µM.
For `OCC(O)CN1CCN(c2ccccc2)CC1` (stereo not drawn) [Dropropizine], under “AC50 (uM) modified / 1000”, the CC50 at 24 h is > 50 µM.
With `CC(=O)Nc1ccccc1O` [2-Acetamidophenol], for the setting “AC50 (uM) modified / 1000”, the CC50 at 24 h is > 90 µM.
On the same count and under the same terms, the result for `COC(=O)CC[C@H](N)C(=O)O` [(5)-Methyl L-glutamate] reads > 50 µM.
On the same count and under the same terms, the result for `Cc1cccc(CN2CCN(C(c3ccccc3)c3ccc(Cl)cc3)CC2)c1` (stereo not drawn) [Meclozine dihydrochloride] reads 15.6 µM.
For the compound `CCCCCON=O` [Pentyl nitrite], the CC50 at 24 h (AC50 (uM) modified / 1000, Tox21_110001=Tox21_202898, viability, 1 nM T3 present, 24 h) is > 90 µM.
On to `O=C(O)COCC(=O)O` [Diglycolic acid], for which the half-maximal cytotoxic concentration (CC50) at 24 h (AC50 (uM) modified / 1000) is > 90 µM.
Consider `C(=C\c1ccncc1)/c1ccccc1` [4-Styrylpyridine], for which the CC50 at 24 h (AC50 (uM) modified / 1000) is > 50 µM.
The same measure, in the same setting: the same measure for `Cc1cccc(C)c1NC(=O)c1ccccc1C(=O)O` [Ftaxilide]: > 50 µM; for `CCCC[N+]1(C)CCCC1` [1-Butyl-1-methylpyrrolidinium hexafluorophosphate]: > 90 µM.
On the same count and under the same terms, the same measure for `CC1(C)S[C@@H]2[C@H](NC(=O)[C@H](N)c3ccccc3)C(=O)N2[C@H]1C(=O)OCOC(=O)[C@@H]1N2C(=O)C[C@H]2S(=O)(=O)C1(C)C` [Sultamicillin tosylate]: > 50 µM; for `CCO[Si](C)(OCC)OCC` [Triethoxymethylsilane]: > 90 µM; for `O=C(/C=C/c1ccccc1)OCCCc1ccccc1` [3-Phenylpropyl cinnamate]: > 90 µM.
Turning to `O=C(OCc1ccccc1)C(=O)OCc1ccccc1` [Dibenzyl oxalate], the CC50 at 24 h (AC50 (uM) modified / 1000) was > 90 µM.
As to `CCOC(=O)CCCCCCCCC(=O)OCC` [Diethyl decanedioate], for the setting “AC50 (uM) modified / 1000”, the CC50 at 24 h is > 90 µM.
The same measure, in the same setting: the result for `CC(=O)Nc1ccc(CC(=O)O)cc1` [4-Acetylaminophenylacetic acid] reads > 90 µM; that for `Cc1cc(CCN2CCN(c3nsc4ccccc34)CC2)cc2c1NC(=O)CC2(C)C` [PD 0343701], 46.9 µM.
Still for that read-out and setting: the result for `Cc1cc(C(C)(C)C)c(O)c(C)c1CC1=NCCN1` [Oxymetazoline] reads > 50 µM.
Same read-out and setting: the result for `CO[C@H]1C[C@H](O[C@H]2[C@H](C)[C@@H](O[C@@H]3O[C@H](C)C[C@H](N(C)C)[C@H]3O)[C@@H](C)C[C@@]3(CO3)C(=O)[C@H](C)[C@@H](O)[C@@H](C)[C@@H](C)OC(=O)[C@@H]2C)O[C@@H](C)[C@@H]1O` [Oleandomycin phosphate] reads > 20 µM; that for `CCC=CCCCCO` (stereo in doubt) [(Z)-5-Octen-1-ol], > 90 µM.
`Nc1ccccc1Nc1ccccc1` [2-Aminodiphenylamine] showed a CC50 at 24 h (AC50 (uM) modified / 1000) of 14.7 µM.
As to `Cc1cc(Cl)ccc1OCCCC(=O)O` [MCPB], the CC50 at 24 h reads like this: (AC50 (uM) modified / 1000, Tox21_110001=Tox21_201319, viability, 1 nM T3 present, 24 h) > 100 µM; (AC50 (uM) modified / 1000, Tox21_110001=Tox21_303338, viability, 1 nM T3 present, 24 h) > 90 µM.
Take `COc1ccc(NC(C)=O)cc1N` [N-(3-Amino-4-methoxyphenyl)acetamide]: where the note is “AC50 (uM) modified / 1000”, the half-maximal cytotoxic concentration (CC50) at 24 h was > 90 µM.
On to `CC(C)C[C@H](NC(=O)CNC(=O)[C@H](Cc1ccc(O)cc1)NC(=O)[C@H](CO)NC(=O)[C@H](Cc1c[nH]c2ccccc12)NC(=O)[C@H](Cc1cnc[nH]1)NC(=O)[C@@H]1CCC(=O)N1)C(=O)N[C@@H](CCCNC(=N)N)C(=O)N1CCC[C@H]1C(=O)NCC(N)=O` [Gonadorelin hydrochloride], for which, under “AC50 (uM) modified / 1000”, the CC50 at 24 h was > 50 µM.
The same measure, in the same setting: the same measure for `COC(=O)c1ccc2cc(C(=O)OC)ccc2c1` [Dimethyl 2,6-naphthalenedicarboxylate]: > 20 µM.
For `COP(=S)(OC)Oc1ccc(Sc2ccc(OP(=S)(OC)OC)cc2)cc1` [Temephos], the CC50 at 24 h runs as follows: (AC50 (uM) modified / 1000, Tox21_110001=Tox21_112075, viability, 1 nM T3 present, 24 h) > 50 µM; (AC50 (uM) modified / 1000, Tox21_110001=Tox21_301778, viability, 1 nM T3 present, 24 h) > 90 µM.
As to `CC(=O)OCC(=O)[C@@]12OC(C)(C)O[C@@H]1C[C@H]1[C@@H]3C[C@H](F)C4=CC(=O)C=C[C@]4(C)[C@@]3(F)[C@@H](O)C[C@@]12C` [Fluocinonide], the CC50 at 24 h (AC50 (uM) modified / 1000) was > 20 µM.
Consider `C=Cc1ccc(C)cc1` [4-Methylstyrene], for which the CC50 at 24 h (AC50 (uM) modified / 1000) is > 90 µM.
Consider `CCCC(CC)c1ccccc1` (stereo not drawn) [3-Phenylhexane], for which the CC50 at 24 h (AC50 (uM) modified / 1000) was > 90 µM.
